Broadly, the solubility is the concentration that dissolves in the medium under given conditions.

Results on 1 molecule are retold here after patent publication US20080161583A1, “Epimerization methodologies for recovering stereoisomers in high yield and purity” (priority 2006, published 2008).

Values after ≈ are worked out from the molar mass of the structure shown.

This data set in a line: Solubility of an epimer in a solvent at the epimerization temperature (saturated slurry, filtered sample, HPLC assay). It counts as physicochemical. The note with it: saturated slurry in denatured ethanol (2B-3), organic solvent or mixture, thermodynamic from solid. As for the experimental part:
The solubility of a first epimer in a solvent may be determined as follows. Sampling syringes and saturated slurry samples are pre-heated (or pre-chilled) to the desired epimerization temperature, e.g., 65 C or 70 C in some embodiments. The syringe is preheated (or pre-chilled) to the same temperature in a vessel containing only the solvent and the syringe. The syringes may be 5 ml disposable syringes. The saturated slurry samples are prepared by combining the solvent under investigation and enough of the purified first epimer to ensure that at least some precipitate is present so that the sample slurry is saturated. A purified epimer refers to an epimer having a purity of at least 85% by weight with respect to the total weight of epimers, preferably at least 90% by weight, more preferably at least 95% by weight. When both the sample and the syringe are at the desired temperature, 1.5 ml samples are quickly drawn into the syringe. The sampling syringes desirably acquire samples through a suitable filter to avoid bringing solids into the syringe. A 25 mm, 0.45 micron PTFE disk filter is suitable. 1 ml of each sample is blown down and then diluted in 10 ml of a solvent in which the epimer is fully soluble such as methanol. HPLC analysis is then performed to determine the amount of epimer in the diluted sample. […]

Turning to `CC1(C)COC2(CC[C@H](CC(C(=O)O)c3ccc(S(C)(=O)=O)c(Cl)c3)C2)OC1` (some centres unmarked) [R,R epimer], the solubility was 23.2 mg/mL (≈ 53.9 mM) (65 C) and 27.1 mg/mL (≈ 62.8 mM) (70 C).
